Measurements published in PubChem BioAssay AID256 (DTP/NCI, 2004).
“And” between values parts separate entries of the source, which are not always exact repeats. Equal values may be shown once. Inconclusive results and toxic doses are left out. The calls were made as follows: active = survival T/C of 150% or more; inactive = T/C below 125% in these data.

Test system: CD2F1 mice, L1210 leukemia ip, survival T/C
Assay: NCI In Vivo Anticancer Drug Screen. Data for tumor model L1210 Leukemia (intraperitoneal) in CD2F1 (CDF1) mice
Conditions: higher = longer survival
In short: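 Vehicle-treated tumor-bearing mice served as controls (C) for compound-treated mice (T). Reported figure is T divided by C.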

[1] = endpoint: mean survival time, dose: 100.0 mg/kg/injection, schedule: Q01DX001 (ip), vehicle: saline
[2] = endpoint: mean survival time, dose: 200.0 mg/kg/injection, schedule: Q01DX001 (ip), vehicle: saline
[3] = endpoint: mean survival time, dose: 100.0 mg/kg/injection, schedule: Q01DX001 (ip), vehicle: saline with Tween-80
[4] = endpoint: mean survival time, dose: 400.0 mg/kg/injection, schedule: Q01DX001 (ip), vehicle: saline with Tween-80
[5] = endpoint: mean survival time, dose: 100.0 mg/kg/injection, schedule: Q01DX009 (ip), vehicle: saline with Tween-80
[6] = endpoint: mean survival time, dose: 200.0 mg/kg/injection, schedule: Q01DX009 (ip), vehicle: saline with Tween-80
[7] = endpoint: mean survival time, dose: 400.0 mg/kg/injection, schedule: Q01DX009 (ip), vehicle: saline with Tween-80
[8] = endpoint: mean survival time, dose: 50.0 mg/kg/injection, schedule: Q01DX009 (ip), vehicle: saline with Tween-80
[9] = endpoint: mean survival time, dose: 100.0 mg/kg/injection, schedule: Q04DX003 (ip), vehicle: saline with Tween-80
[10] = endpoint: mean survival time, dose: 200.0 mg/kg/injection, schedule: Q04DX003 (ip), vehicle: saline with Tween-80
[11] = endpoint: mean survival time, dose: 400.0 mg/kg/injection, schedule: Q04DX003 (ip), vehicle: saline with Tween-80

Measured: T/C

CCOC(=O)C(C(=O)OCC)[N+](=O)[O-]
inactive: endpoint: mean survival time, dose: 50.0 mg/kg/injection, schedule: Q04DX003 (ip), vehicle: saline 102 % of control | [1] 97 % of control | endpoint: mean survival time, dose: 100.0 mg/kg/injection, schedule: Q04DX003 (ip), vehicle: saline 100 % of control | [2] 95 % of control | endpoint: mean survival time, dose: 200.0 mg/kg/injection, schedule: Q04DX003 (ip), vehicle: saline 105 % of control

COc1ccccc1NC(=O)Oc1ccc(SC)c(C)c1
inactive: endpoint: mean survival time, dose: 100.0 mg/kg/injection, schedule: Q04DX002 (ip), vehicle: saline with Tween-80 100 % of control | endpoint: mean survival time, dose: 200.0 mg/kg/injection, schedule: Q04DX002 (ip), vehicle: saline with Tween-80 95 % of control | endpoint: mean survival time, dose: 400.0 mg/kg/injection, schedule: Q04DX002 (ip), vehicle: saline with Tween-80 95 % of control

Nc1nc(-c2cccc([N+](=O)[O-])c2)c(N=Nc2ccccc2[N+](=O)[O-])s1
inactive: [3] 96 % of control | [4] 98 % of control

COc1ccc(/C(C)=N/N=C\c2cc(OC)c(OC)c(OC)c2)cc1
inactive: [5] 91 % of control | [6] 89 % of control | [7] 88 % of control

C=C(C)[C@H]1CN[C@H](C(=O)O)[C@H]1CC(=O)O
inactive: endpoint: mean survival time, dose: 5.0 mg/kg/injection, schedule: Q01DX001 (ip), vehicle: saline 94 % of control | endpoint: median survival time, dose: 0.31 mg/kg/injection, schedule: Q01DX009 (ip), vehicle: saline with Tween-80 103 % of control | endpoint: median survival time, dose: 0.62 mg/kg/injection, schedule: Q01DX009 (ip), vehicle: saline with Tween-80 101 % of control | endpoint: median survival time, dose: 1.25 mg/kg/injection, schedule: Q01DX009 (ip), vehicle: saline with Tween-80 100 % of control | endpoint: median survival time, dose: 2.5 mg/kg/injection, schedule: Q01DX009 (ip), vehicle: saline with Tween-80 101 % of control | endpoint: median survival time, dose: 2.5 mg/kg/injection, schedule: Q01DX009 (ip), vehicle: saline 96 % of control | endpoint: median survival time, dose: 5.0 mg/kg/injection, schedule: Q01DX009 (ip), vehicle: saline with Tween-80 101 % of control | endpoint: median survival time, dose: 5.0 mg/kg/injection, schedule: Q01DX009 (ip), vehicle: saline 103 % of control | endpoint: median survival time, dose: 6.25 mg/kg/injection, schedule: Q01DX009 (ip), vehicle: saline 104 % of control | endpoint: median survival time, dose: 10.0 mg/kg/injection, schedule: Q01DX009 (ip), vehicle: saline with Tween-80 101 % of control | endpoint: median survival time, dose: 10.0 mg/kg/injection, schedule: Q01DX009 (ip), vehicle: saline 101 % of control | endpoint: median survival time, dose: 12.5 mg/kg/injection, schedule: Q01DX009 (ip), vehicle: saline 108 % of control | endpoint: median survival time, dose: 20.0 mg/kg/injection, schedule: Q01DX009 (ip), vehicle: saline 95 % of control | endpoint: median survival time, dose: 25.0 mg/kg/injection, schedule: Q01DX009 (ip), vehicle: saline 97 % of control | endpoint: median survival time, dose: 40.0 mg/kg/injection, schedule: Q01DX009 (ip), vehicle: saline 93 % of control | endpoint: median survival time, dose: 50.0 mg/kg/injection, schedule: Q01DX009 (ip), vehicle: saline 96 % of control

O=C1OC(O)C(Cl)=C1Cl (centres undefined)
inactive: endpoint: mean survival time, dose: 100.0 mg/kg/injection, schedule: Q04DX002 (ip), vehicle: Klucel (hydroxypropylcellulose) (HPC) 103 % of control | endpoint: mean survival time, dose: 200.0 mg/kg/injection, schedule: Q04DX002 (ip), vehicle: Klucel (hydroxypropylcellulose) (HPC) 91 % of control | endpoint: mean survival time, dose: 400.0 mg/kg/injection, schedule: Q04DX002 (ip), vehicle: Klucel (hydroxypropylcellulose) (HPC) 97 % of control

COc1cc2c(c(OC)c1OC)-c1ccc(SC)c(=O)cc1[C@@H](NC1OC(COC(C)=O)C(OC(C)=O)C(OC(C)=O)C1OC(C)=O)CC2 (some centres undefined)
inactive: endpoint: mean survival time, dose: 1.5 mg/kg/injection, schedule: Q01DX009 (ip), vehicle: other 97 % of control | endpoint: mean survival time, dose: 3.0 mg/kg/injection, schedule: Q01DX009 (ip), vehicle: other 97 % of control | endpoint: mean survival time, dose: 6.0 mg/kg/injection, schedule: Q01DX009 (ip), vehicle: other 97 % of control | endpoint: mean survival time, dose: 12.0 mg/kg/injection, schedule: Q01DX009 (ip), vehicle: other 96 % of control | endpoint: mean survival time, dose: 24.0 mg/kg/injection, schedule: Q01DX009 (ip), vehicle: other 96 % of control

CC/C=C(\CC)CO
inactive: [8] 100 % of control | [5] 95 % of control | [6] 100 % of control

CC1=C/C(=N\Nc2ccccc2)C(C(O)(C(F)(F)Cl)C(F)(F)Cl)C(C)(C)C1 (centres undefined)
inactive: [9] 96 % of control | [10] 94 % of control | [11] 93 % of control

[Cl][Pt+2][Cl].[NH-]c1ccc(S(=O)(=O)Nc2ccccn2)cc1.[NH-]c1ccc(S(=O)(=O)Nc2ccccn2)cc1
inactive: endpoint: mean survival time, dose: 25.0 mg/kg/injection, schedule: Q04DX003 (ip), vehicle: saline with Tween-80 97 % of control | endpoint: mean survival time, dose: 50.0 mg/kg/injection, schedule: Q04DX003 (ip), vehicle: saline with Tween-80 97 % of control | [9] 96 % of control | [10] 102 % of control | [11] 107 % of control

O=C(O)CCC(=O)c1ccc(Cl)c(Cl)c1
inactive: [8] 102 % of control | [5] 96 % of control | [9] 98 % of control | [10] 91 % of control

O=C(O)c1ccccn1
inactive: endpoint: mean survival time, dose: 50.0 mg/kg/injection, schedule: Q04HX027 (ip), vehicle: saline 102 % of control | endpoint: mean survival time, dose: 100.0 mg/kg/injection, schedule: Q04HX027 (ip), vehicle: saline 93 % of control

O=C(O)CCc1ccccc1CC(=O)O
inactive: [9] 98 % of control | [10] 98 % of control | [11] 97 % of control

C=C(c1ccccc1)C(C)C(=O)OCC (centres undefined)
inactive: [9] 103 % of control | [10] 103 % of control | [11] 100 % of control

CN(C)NC=O
inactive: endpoint: mean survival time, dose: 100.0 mg/kg/injection, schedule: Q04DX002 (ip), vehicle: saline 101 % of control | endpoint: mean survival time, dose: 200.0 mg/kg/injection, schedule: Q04DX002 (ip), vehicle: saline 101 % of control | endpoint: mean survival time, dose: 400.0 mg/kg/injection, schedule: Q04DX002 (ip), vehicle: saline 101 % of control

[NH-]c1ccccc1C(=O)O.[NH-]c1ccccc1C(=O)O.[Ni+2]
inactive: [9] 93 % of control | [10] 107 % of control

CC(=O)N=C1C=C(NC(C)=O)C(=O)c2ncccc21
inactive: endpoint: mean survival time, dose: 6.25 mg/kg/injection, schedule: Q04DX002 (ip), vehicle: saline with Tween-80 95 % of control | endpoint: mean survival time, dose: 12.5 mg/kg/injection, schedule: Q04DX002 (ip), vehicle: saline with Tween-80 119 % of control | endpoint: mean survival time, dose: 25.0 mg/kg/injection, schedule: Q04DX002 (ip), vehicle: saline with Tween-80 119 % of control

O=C1NC(CN2CCCCC2)C(=O)NC1CN1CCCCC1 (centres undefined)
inactive: endpoint: mean survival time, dose: 3.13 mg/kg/injection, schedule: Q01DX009 (ip), vehicle: water 98 % of control | endpoint: mean survival time, dose: 6.25 mg/kg/injection, schedule: Q01DX009 (ip), vehicle: water 98 % of control | endpoint: mean survival time, dose: 12.5 mg/kg/injection, schedule: Q01DX009 (ip), vehicle: water 105 % of control | endpoint: mean survival time, dose: 25.0 mg/kg/injection, schedule: Q01DX009 (ip), vehicle: water 103 % of control | endpoint: mean survival time, dose: 50.0 mg/kg/injection, schedule: Q01DX009 (ip), vehicle: water 98 % of control | endpoint: mean survival time, dose: 100.0 mg/kg/injection, schedule: Q01DX009 (ip), vehicle: water 105 % of control

CCOC(C=O)OCC
inactive: [1] 103 % of control | [2] 97 % of control | endpoint: mean survival time, dose: 400.0 mg/kg/injection, schedule: Q01DX001 (ip), vehicle: saline 103 % of control

CC(=O)C1CCC2C3CC=C4CC(n5c(=O)cc[nH]c5=O)CCC4(C)C3CCC12C (centres undefined)
inactive: endpoint: mean survival time, dose: 12.5 mg/kg/injection, schedule: Q04DX003 (ip), vehicle: Klucel (hydroxypropylcellulose) (HPC) 97 % of control | endpoint: mean survival time, dose: 25.0 mg/kg/injection, schedule: Q04DX003 (ip), vehicle: Klucel (hydroxypropylcellulose) (HPC) 98 % of control | endpoint: mean survival time, dose: 50.0 mg/kg/injection, schedule: Q04DX003 (ip), vehicle: Klucel (hydroxypropylcellulose) (HPC) 101 % of control and 103 % of control | endpoint: mean survival time, dose: 100.0 mg/kg/injection, schedule: Q04DX003 (ip), vehicle: Klucel (hydroxypropylcellulose) (HPC) 92 % of control and 101 % of control | endpoint: mean survival time, dose: 200.0 mg/kg/injection, schedule: Q04DX003 (ip), vehicle: Klucel (hydroxypropylcellulose) (HPC) 95 % of control | endpoint: mean survival time, dose: 400.0 mg/kg/injection, schedule: Q04DX003 (ip), vehicle: Klucel (hydroxypropylcellulose) (HPC) 90 % of control

O=C1/C(=C/c2ccccc2)Cc2ccccc21
inactive: [5] 94 % of control | [6] 91 % of control | [7] 89 % of control

N#Cc1ncc(-c2ccccc2)nc1C#N
inactive: [3] 91 % of control | endpoint: mean survival time, dose: 200.0 mg/kg/injection, schedule: Q01DX001 (ip), vehicle: saline with Tween-80 92 % of control | [4] 105 % of control
